Where “and” joins values, the source holds several entries; their conditions need not be identical. Equal entries are not always repeated.
Columns and labels:
[1] = system: differentiated C2BBe1 cells; assay type: cell-based, human; settings: for TEER, normalized to solvent control: SD
[2] = system: differentiated Caco-2 (C2BBe1) cell monolayer; assay type: cell-based, human; settings: 24 h incubation with toxin (CER 1-100 ng/mL, DON 0.1-10 µg/mL), then 0.1 mg/mL LY apical in HBSS pH 7.4, 1 h, 37 °C, basolateral fluorescence, 3 biological replicates
[3] = system: tight junction protein claudin-4 (CLD-4); assay: Immunofluorescence staining of claudin-4; assay type: cell-based, human; settings: 24 h, mean ± SD, 3 biological replicates, at least 9 optical fields
mucin 5AC [4] = assay: Immunofluorescence staining of mucin 5AC; assay type: cell-based, human; settings: 24 h, 3 biological replicates; for mucin 5AC fluorescence intensity compared to the solvent control: mean ± SD, SD
[5] = system: differentiated Caco-2 (C2BBe1) cells
mucin 5AC [6] = settings: 2 µM DON, 48 h incubation; cited from earlier work
Method: In addition to the investigation of barrier integrity, interest in the influence of mycotoxins on the intestinal mucus layer recently emerged, whereby data is still scarce. […] In addition to the different incubation times a ...

[7] = system: differentiated Caco-2 cells; assay: LC-MS/MS of CER in transwell compartments (uptake); assay type: in vitro ADME, human; settings: 24 h; for CER concentration in basolateral medium: apical application, mean ± SD, 3 biological replicates, SD

| Compound | TEER, normalized to solvent control [1] | Effect on paracellular passage of Lucifer Yellow [2] | CLD-4 immunofluorescence intensity in comparison to the solvent control ([3]; 10 µg/mL DON) [%] | mucin 5AC fluorescence intensity vs solvent control (mucin 5AC [4]; DON alone (1 and 10 µg/mL)) | DON concentration in cell lysates [5] | Detection of DON in apical medium, basolateral medium and cell lysates [5] | mucin 5AC in cell lysates of Caco-2 cells (mucin 5AC [6]) | TEER [1] | CLD-4 immunofluorescence intensity in comparison to the solvent control ([3]; 10 ng/mL CER) [%] | CLD-4 immunofluorescence intensity in comparison to the solvent control ([3]; 100 ng/mL CER) [%] | mucin 5AC fluorescence intensity compared to the solvent control (mucin 5AC [4]; 10 ng/mL CER) [%] | mucin 5AC fluorescence intensity compared to the solvent control (mucin 5AC [4]; 100 ng/mL CER) [%] | CER concentration in basolateral medium ([7]; 100 ng/mL CER with 10 µg/mL DON, transwell) [ng/mL medium] | CER concentration in basolateral medium ([7]; 100 ng/mL CER without DON, transwell) [ng/mL medium] | CER in cell lysates ([7]; 1-100 ng/mL CER with or without DON) | CER in the apical compartment ([7]; 1-100 ng/mL CER with or without DON, transwell) |
| --- | --- | --- | --- | --- | --- | --- | --- | --- | --- | --- | --- | --- | --- | --- | --- | --- |
| CC1=C[C@H]2O[C@@H]3[C@H](O)C[C@](C)([C@@]2(CO)[C@H](O)C1=O)[C@]31CO1 [DON, deoxynivalenol] | 116 ± 12% and 116 ± 6% | no significant effects | 127 ± 38 | no significant effect | < LOD | detected in all compartments and incubation conditions, except the cell lysates treated with the lowest toxin concentration | upregulation of mucin 5AC | – | – | – | – | – | – | – | – | – |
| cereulide | 193 ± 7% and 163 ± 34% | no significant effects | – | – | – | – | – | no impact | 173 ± 41 | 138 ± 49 | 80 ± 14 | 73 ± 20 | 0.07 ± 0.05 | 0.04 ± 0.02 | detected in the cell lysates of all samples | quantified in all treatment conditions |
